Reference: patent publication US10501451B2, “Selective NR2B antagonists” (BRISTOL-MYERS SQUIBB COMPANY, priority 2015, dated 2019)

Columns and labels:
[1] = molecular target: NR2B-subtype NMDA receptors (Rattus norvegicus (Rat), UniProt P35439+Q00960); test: Radioligand binding assay (3H Ro 25-6981 competition, rat forebrain membranes); conditions: 3H Ro 25-6981 (4 nM), P-2, read-out: NR2B Binding Ki
Description: Radioligand Binding Assay. Binding experiments to determine binding to NR2B-subtype NMDA receptors were performed on forebrains of 8-10 weeks old male Sprague Dawley rats (Harlan, Netherlands) using ^3H Ro 25-6981 (Mutel V; Buchy D; Klingelschmidt A; Messer J; Bleuel Z; Kemp J A; Richards J G. Journal of Neurochemistry, 1998, 70(5):2147-2155. Rats were decapitated without anesthesia using a Guillotine (approved by animal ethics committee) and the harvested brains were snap-frozen and stored at −80° C. for 3-6 months for membrane preparation.
For membrane preparation, rat forebrains were thawed on ice for 20 minutes in homogenization buffer composed of 50 mM KH2PO4 (pH adjusted to 7.4 with KOH), 1 mM EDTA, 0.005% Triton X 100 and protease inhibitor cocktail (Sigma Aldrich). Thawed brains were homogenized using a Dounce homogenizer and centrifuged at 48000×g for 20 min. The pellet was resuspended in cold buffer and homogenized again using a Dounce homogenizer. Subsequently, the homogenate was aliquoted, snap-frozen and stored at −80° C. for not more than 3-4 months.
To perform the competition binding assay, thawed membrane homogenate was added to each well of a 96-well plate (20 μg/well). The experimental compounds were serially diluted in 100% DMSO and added to each row of the assay plate to achieve desired compound concentrations, keeping the DMSO concentration in the assay plate at 1.33% of the final reaction volume. Next, ^3H Ro 25-6981 (4 nM) was added to the assay plate. After incubation for 1 hr at room temperature, the membrane bound radioligand was harvested on to GF/B filter plates (treated with 0.5% PEI for 1 hr at room temperature). The filter plates were dried at 50° C. for 20 mins, incubated with microscint 20 for 10 minutes and finally, the counts were read on TopCount (Perkin Elmer).

[2] = molecular target: brain-resident NR2B-subtype receptors (Mus musculus (Mouse), UniProt P35438+Q01097); test: Ex vivo occupancy assay; assay type: in vivo; conditions: animals after dosing
Sequence of brain-resident NR2B-subtype receptors (Q01097 27-1482, other chains not shown): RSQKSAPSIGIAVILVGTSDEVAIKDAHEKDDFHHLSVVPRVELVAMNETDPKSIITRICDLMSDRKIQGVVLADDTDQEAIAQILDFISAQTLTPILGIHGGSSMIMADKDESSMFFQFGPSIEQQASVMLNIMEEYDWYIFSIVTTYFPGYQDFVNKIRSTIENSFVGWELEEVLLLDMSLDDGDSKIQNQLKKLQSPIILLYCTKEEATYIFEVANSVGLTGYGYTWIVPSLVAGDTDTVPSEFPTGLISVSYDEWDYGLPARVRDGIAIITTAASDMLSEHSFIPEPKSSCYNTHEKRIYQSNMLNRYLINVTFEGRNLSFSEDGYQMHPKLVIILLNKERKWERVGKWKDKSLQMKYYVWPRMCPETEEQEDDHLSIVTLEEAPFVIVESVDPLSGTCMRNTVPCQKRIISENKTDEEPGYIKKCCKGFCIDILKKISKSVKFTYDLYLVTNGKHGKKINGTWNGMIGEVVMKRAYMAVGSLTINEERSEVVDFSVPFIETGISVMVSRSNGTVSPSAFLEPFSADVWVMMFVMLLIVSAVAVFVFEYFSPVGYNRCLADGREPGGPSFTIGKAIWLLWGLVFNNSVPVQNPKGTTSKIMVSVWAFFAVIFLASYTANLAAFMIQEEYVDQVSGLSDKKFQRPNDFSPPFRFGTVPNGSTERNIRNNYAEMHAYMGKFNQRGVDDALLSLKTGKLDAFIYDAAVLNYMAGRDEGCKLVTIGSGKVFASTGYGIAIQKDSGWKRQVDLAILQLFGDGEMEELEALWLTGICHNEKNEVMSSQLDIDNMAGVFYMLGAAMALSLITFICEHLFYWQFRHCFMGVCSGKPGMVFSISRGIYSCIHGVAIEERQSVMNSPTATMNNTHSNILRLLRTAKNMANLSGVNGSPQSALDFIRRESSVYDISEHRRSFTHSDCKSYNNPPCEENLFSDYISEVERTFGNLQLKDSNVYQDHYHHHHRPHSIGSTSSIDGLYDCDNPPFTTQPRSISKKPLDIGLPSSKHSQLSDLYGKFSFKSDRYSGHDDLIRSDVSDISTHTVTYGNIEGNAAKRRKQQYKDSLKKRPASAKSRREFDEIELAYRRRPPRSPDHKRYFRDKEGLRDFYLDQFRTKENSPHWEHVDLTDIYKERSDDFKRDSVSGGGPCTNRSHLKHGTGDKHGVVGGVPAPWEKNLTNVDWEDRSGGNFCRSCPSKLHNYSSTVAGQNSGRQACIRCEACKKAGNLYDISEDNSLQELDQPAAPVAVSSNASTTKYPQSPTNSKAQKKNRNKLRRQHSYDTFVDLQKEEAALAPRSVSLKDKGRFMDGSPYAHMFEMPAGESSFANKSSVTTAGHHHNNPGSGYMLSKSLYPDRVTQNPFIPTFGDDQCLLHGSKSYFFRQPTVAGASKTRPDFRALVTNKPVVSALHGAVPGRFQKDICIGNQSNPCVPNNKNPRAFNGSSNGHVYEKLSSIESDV
Description: Ex Vivo Occupancy Assay. […] 7-9 weeks old male CD-1 mice were dosed intravenously in a vehicle consisting of 10% dimethylacetamide, 40% PEG-400, 30% hydroxypropyl betacyclodextrin, and 30% water with experimental compounds and the forebrains were harvested 15 minutes post-dosing by decapitation. The brain samples were immediately snap-frozen and stored at −80° C. On the following day, the dosed brain samples were thawed on ice for 15-20 minutes followed by homogenization using Polytron for 10 seconds in cold homogenization buffer composed of 50 mM KH2PO4 (pH adjusted to 7.4 with KOH), 1 mM EDTA, 0.005% Triton X 100 and protease inhibitor cocktail (Sigma Aldrich). The crude homogenates were further homogenized using a Dounce homogenizer and the homogenized membrane aliquots from all animals were flash-frozen and stored at −80° C. until further use. The whole homogenization process was performed on ice. For determining occupancy, the membrane homogenates were first thawed on ice and then needle-homogenized using a 25 gauge needle. The homogenized membrane (6.4 mg/ml) was added to a 96-well plate followed by addition of ^3H Ro 25-6981 (6 nM). The reaction mixture was incubated for 5 minutes on a shaker at 4° C. and then harvested onto GF/B filter plates (treated with 0.5% PEI for 1 hr at room temperature). The filter plates were dried at 50° C. for 20 mins, incubated with microscint 20 for 10 minutes and read on TopCount (Perkin Elmer). Each dose or compound group consisted of 4-5 animals. The control group of animals was dosed with vehicle alone. Membrane from each animal was added in triplicates to the assay plate. Non-specific binding was determined using 10 μM Ro 25-6981 added to the wells containing membrane homogenates from vehicle-dosed animals. Specific counts/minute was converted to % occupancy at each dose of a compound for each animal using the following equation: […]
Drug levels were determined by mass spectroscopy in the usual manner. Drug levels in the blood plasma were 572 nM in at this dose, and drug levels in the homogenized brain tissue were 863 nM.

Sequence of NR2B-subtype NMDA receptors (Q00960 27-1482, other chains not shown): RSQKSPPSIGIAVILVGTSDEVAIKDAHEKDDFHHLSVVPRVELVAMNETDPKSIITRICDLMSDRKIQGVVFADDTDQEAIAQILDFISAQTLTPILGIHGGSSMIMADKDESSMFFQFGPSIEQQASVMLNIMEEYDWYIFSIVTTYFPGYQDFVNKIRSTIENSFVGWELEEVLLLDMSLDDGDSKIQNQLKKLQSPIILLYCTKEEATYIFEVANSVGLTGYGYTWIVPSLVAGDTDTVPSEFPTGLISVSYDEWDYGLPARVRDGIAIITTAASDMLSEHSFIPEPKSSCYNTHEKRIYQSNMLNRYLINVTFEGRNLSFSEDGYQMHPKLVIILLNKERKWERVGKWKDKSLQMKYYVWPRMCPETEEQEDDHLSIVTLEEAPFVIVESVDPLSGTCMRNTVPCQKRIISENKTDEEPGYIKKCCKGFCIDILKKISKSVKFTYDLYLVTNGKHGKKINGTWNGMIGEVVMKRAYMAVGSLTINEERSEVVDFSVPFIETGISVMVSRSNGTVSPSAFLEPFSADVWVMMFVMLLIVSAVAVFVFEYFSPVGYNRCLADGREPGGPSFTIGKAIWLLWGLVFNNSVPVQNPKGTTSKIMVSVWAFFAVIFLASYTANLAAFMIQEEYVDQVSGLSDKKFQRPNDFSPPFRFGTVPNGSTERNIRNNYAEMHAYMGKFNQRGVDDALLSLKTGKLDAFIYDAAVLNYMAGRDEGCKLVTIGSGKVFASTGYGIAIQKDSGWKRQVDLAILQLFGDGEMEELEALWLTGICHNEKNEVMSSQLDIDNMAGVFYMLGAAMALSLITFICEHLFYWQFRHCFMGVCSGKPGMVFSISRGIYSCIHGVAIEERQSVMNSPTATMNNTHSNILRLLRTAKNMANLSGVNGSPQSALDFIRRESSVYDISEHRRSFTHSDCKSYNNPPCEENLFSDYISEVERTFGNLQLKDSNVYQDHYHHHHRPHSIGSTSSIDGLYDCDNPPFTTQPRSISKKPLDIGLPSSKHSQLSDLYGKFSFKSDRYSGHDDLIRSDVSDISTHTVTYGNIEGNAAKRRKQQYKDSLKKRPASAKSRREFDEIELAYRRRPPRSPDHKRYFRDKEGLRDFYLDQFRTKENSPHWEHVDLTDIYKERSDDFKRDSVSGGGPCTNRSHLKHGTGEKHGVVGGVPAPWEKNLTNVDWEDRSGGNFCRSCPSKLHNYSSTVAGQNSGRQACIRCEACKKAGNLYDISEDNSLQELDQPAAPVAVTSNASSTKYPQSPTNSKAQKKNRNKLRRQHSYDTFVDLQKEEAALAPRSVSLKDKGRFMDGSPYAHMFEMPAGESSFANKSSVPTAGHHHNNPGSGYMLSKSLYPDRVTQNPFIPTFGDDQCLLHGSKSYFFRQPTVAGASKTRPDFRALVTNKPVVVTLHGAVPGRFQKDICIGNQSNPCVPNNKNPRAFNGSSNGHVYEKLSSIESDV

Cc1ccc(CN2OCC(N3CCC(c4ccc(O)cc4)CC3)C2=O)cc1 (single isomer, unassigned) [Example 2, P-2, 4-(4-(4-hydroxyphenyl)piperidin-1-yl)-2-(4-methylbenzyl)isoxazolidin-3-one] was tested, and the Ki [1] was 2.79 nM and the “occupancy of brain-resident NR2B-subtype receptors after dosing (in words)” value [2] was “occupies brain-resident NR2B-subtype receptors”.
